# Experimental data: US20100298141A1, “SUBSTITUTED PYRIDINE N-OXIDE HERBICIDES” (E. I. DU PONT DE NEMOURS AND COMPANY, priority 2007, published 2010)
# Assays:
# [1] = system: corn; assay: Test G preemergence test; assay type: in vivo, Zea mays; settings: scale 0 to 100
# [2] = system: field violet; assay: Test D preemergence test; assay type: in vivo, Viola arvensis; settings: scale 0 to 100
# Summary of the method: (§1)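 Seeds planted and treated preemergence with test chemicals formulated in a non-phytotoxic solvent mixture containing surfactant. A dash means no test result.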
# [3] = system: annual bluegrass; assay: Test D preemergence test; assay type: in vivo, Poa annua; settings: scale 0 to 100
# Summary of the method: as §1
# [4] = system: littleseed canarygrass; assay: Test D preemergence test; assay type: in vivo, Phalaris minor; settings: scale 0 to 100
# Summary of the method: as §1
# [5] = system: millet; assay: Test G preemergence test; assay type: in vivo, Panicum miliaceum; settings: scale 0 to 100
# [6] = system: Italian ryegrass; assay: Test D preemergence test; assay type: in vivo, Lolium multiflorum; settings: scale 0 to 100
# Summary of the method: as §1
# [7] = system: downy bromegrass; assay: Test D preemergence test; assay type: in vivo, Bromus tectorum; settings: scale 0 to 100
# Summary of the method: as §1
# [8] = system: goosegrass; assay: Test G preemergence test; assay type: in vivo, Eleusine indica; settings: scale 0 to 100
# [9] = system: millet foxtail; assay: Test G preemergence test; assay type: in vivo, Setaria italica; settings: scale 0 to 100
# [10] = system: broadleaf signalgrass; assay: Test G preemergence test; assay type: in vivo, Brachiaria platyphylla; settings: scale 0 to 100
# [11] = system: green foxtail; assay: Test D preemergence test; assay type: in vivo, Setaria viridis; settings: scale 0 to 100
# Summary of the method: as §1
# [12] = system: yellow foxtail; assay: Test G preemergence test; assay type: in vivo, Pennisetum glaucum; settings: scale 0 to 100
# [13] = system: woolly cupgrass; assay: Test G preemergence test; assay type: in vivo, Eriochloa villosa; settings: scale 0 to 100
# [14] = system: barnyardgrass; assay: Test G preemergence test; assay type: in vivo, Echinochloa crus-galli; settings: scale 0 to 100
# [15] = system: wild oat; assay: Test D preemergence test; assay type: in vivo, Avena fatua; settings: scale 0 to 100
# Summary of the method: as §1
# [16] = system: blackgrass; assay: Test D preemergence test; assay type: in vivo, Alopecurus myosuroides; settings: scale 0 to 100
# Summary of the method: as §1
# [17] = system: duck salad; assay: Test B flooded paddy test; assay type: in vivo, Heteranthera limosa; settings: Flood, 250 g ai/ha, 13 to 15 days; scale 0 to 100, 0 no effect, 100 complete control
# Text: (§2) At time of treatment, test pots were flooded to 3 cm above the soil surface, treated by application of test compounds directly to the paddy water, and then maintained at that water depth for the duration of the test. Treated plants and controls were maintained in a greenhouse for 13 to 15 days, after which time all species were compared to controls and visually evaluated. […] A dash (-) response means no test result.
# [18] = system: umbrella sedge; assay: Test B flooded paddy test; assay type: in vivo, Cyperus difformis; settings: Flood, 250 g ai/ha, 13 to 15 days; scale 0 to 100, 0 no effect, 100 complete control
# Text: as §2
# [19] = system: tall waterhemp; assay: Test G preemergence test; assay type: in vivo, Amaranthus tuberculatos; settings: scale 0 to 100
# [20] = system: eastern black nightshade; assay: Test G preemergence test; assay type: in vivo, Solanum ptycanthum; settings: scale 0 to 100
# [21] = system: winter wheat; assay: Test D preemergence test; assay type: in vivo, Triticum aestivum; settings: scale 0 to 100
# Summary of the method: as §1
# [22] = system: spring wheat; assay: Test D preemergence test; assay type: in vivo, Triticum aestivum; settings: scale 0 to 100
# Summary of the method: as §1
# [23] = system: sorghum; assay: Test G preemergence test; assay type: in vivo, Sorghum vulgare; settings: scale 0 to 100
# [24] = system: cotton; assay: Test G preemergence test; assay type: in vivo, Gossypium hirsutum; settings: scale 0 to 100
# [25] = system: itchgrass; assay: Test G preemergence test; assay type: in vivo, Rottboellia cochinchinensis; settings: scale 0 to 100
smiles,measurement,setting,value
Cn1nc(C(F)(F)F)c(CS(=O)(=O)c2ccc(Cl)c[n+]2[O-])c1OC(F)F [Compound 7],"Plant response rating, Corn",[1]; 31 g ai/ha,0
same,"Plant response rating, Corn",[1]; 62 g ai/ha,0
same,"Plant response rating, Corn",[1]; 125 g ai/ha,0
same,"Plant response rating, Corn",[1]; 250 g ai/ha,0
same,"Plant response rating, Field Violet",[2]; 31 g ai/ha,0
same,"Plant response rating, Field Violet",[2]; 62 g ai/ha,0
same,"Plant response rating, Field Violet",[2]; 125 g ai/ha,0
same,"Plant response rating, Field Violet",[2]; 250 g ai/ha,30
same,"Plant response rating, Bluegrass",[3]; 31 g ai/ha,0
same,"Plant response rating, Bluegrass",[3]; 62 g ai/ha,0
same,"Plant response rating, Bluegrass",[3]; 125 g ai/ha,65
same,"Plant response rating, Bluegrass",[3]; 250 g ai/ha,95
same,"Plant response rating, Canarygrass",[4]; 31 g ai/ha,0
same,"Plant response rating, Canarygrass",[4]; 62 g ai/ha,0
same,"Plant response rating, Canarygrass",[4]; 125 g ai/ha,20
same,"Plant response rating, Canarygrass",[4]; 250 g ai/ha,100
same,"Plant response rating, Millet",[5]; 31 g ai/ha,0
same,"Plant response rating, Millet",[5]; 62 g ai/ha,55
same,"Plant response rating, Millet",[5]; 125 g ai/ha,85
same,"Plant response rating, Millet",[5]; 250 g ai/ha,100
same,"Plant response rating, Ryegrass, Italian",[6]; 31 g ai/ha,0
same,"Plant response rating, Ryegrass, Italian",[6]; 62 g ai/ha,0
same,"Plant response rating, Ryegrass, Italian",[6]; 125 g ai/ha,0
same,"Plant response rating, Ryegrass, Italian",[6]; 250 g ai/ha,20
same,"Plant response rating, Bromegrass, Downy",[7]; 31 g ai/ha,0
same,"Plant response rating, Bromegrass, Downy",[7]; 62 g ai/ha,20
same,"Plant response rating, Bromegrass, Downy",[7]; 125 g ai/ha,25
same,"Plant response rating, Bromegrass, Downy",[7]; 250 g ai/ha,35
same,"Plant response rating, Goosegrass",[8]; 31 g ai/ha,50
same,"Plant response rating, Goosegrass",[8]; 62 g ai/ha,90
same,"Plant response rating, Goosegrass",[8]; 125 g ai/ha,100
same,"Plant response rating, Goosegrass",[8]; 250 g ai/ha,100
same,"Plant response rating, Foxtail, Millet",[9]; 31 g ai/ha,0
same,"Plant response rating, Foxtail, Millet",[9]; 62 g ai/ha,0
same,"Plant response rating, Foxtail, Millet",[9]; 125 g ai/ha,55
same,"Plant response rating, Foxtail, Millet",[9]; 250 g ai/ha,55
same,"Plant response rating, Signalgrass",[10]; 31 g ai/ha,15
same,"Plant response rating, Signalgrass",[10]; 62 g ai/ha,35
same,"Plant response rating, Signalgrass",[10]; 125 g ai/ha,90
same,"Plant response rating, Signalgrass",[10]; 250 g ai/ha,100
same,"Plant response rating, Foxtail, Green",[11]; 31 g ai/ha,0
same,"Plant response rating, Foxtail, Green",[11]; 62 g ai/ha,20
same,"Plant response rating, Foxtail, Green",[11]; 125 g ai/ha,20
same,"Plant response rating, Foxtail, Green",[11]; 250 g ai/ha,55
same,"Plant response rating, Foxtail, Yellow",[12]; 31 g ai/ha,0
same,"Plant response rating, Foxtail, Yellow",[12]; 62 g ai/ha,50
same,"Plant response rating, Foxtail, Yellow",[12]; 125 g ai/ha,95
same,"Plant response rating, Foxtail, Yellow",[12]; 250 g ai/ha,100
same,"Plant response rating, Cupgrass, Woolly",[13]; 31 g ai/ha,0
same,"Plant response rating, Cupgrass, Woolly",[13]; 62 g ai/ha,60
same,"Plant response rating, Cupgrass, Woolly",[13]; 125 g ai/ha,75
same,"Plant response rating, Cupgrass, Woolly",[13]; 250 g ai/ha,80
same,"Plant response rating, Barnyardgrass",[14]; 31 g ai/ha,0
same,"Plant response rating, Barnyardgrass",[14]; 62 g ai/ha,15
same,"Plant response rating, Barnyardgrass",[14]; 125 g ai/ha,60
same,"Plant response rating, Barnyardgrass",[14]; 250 g ai/ha,100
same,"Plant response rating, Oat, Wild",[15]; 31 g ai/ha,0
same,"Plant response rating, Oat, Wild",[15]; 62 g ai/ha,0
same,"Plant response rating, Oat, Wild",[15]; 125 g ai/ha,0
same,"Plant response rating, Oat, Wild",[15]; 250 g ai/ha,0
same,"Plant response rating, Blackgrass",[16]; 31 g ai/ha,0
same,"Plant response rating, Blackgrass",[16]; 62 g ai/ha,0
same,"Plant response rating, Blackgrass",[16]; 125 g ai/ha,0
same,"Plant response rating, Blackgrass",[16]; 250 g ai/ha,80
same,"Plant response rating, Ducksalad",[17],90
same,"Plant response rating, Umbrella Sedge",[18],90
same,"Plant response rating, Waterhemp",[19]; 31 g ai/ha,15
same,"Plant response rating, Waterhemp",[19]; 62 g ai/ha,60
same,"Plant response rating, Waterhemp",[19]; 125 g ai/ha,100
same,"Plant response rating, Waterhemp",[19]; 250 g ai/ha,100
same,"Plant response rating, Nightshade",[20]; 31 g ai/ha,0
same,"Plant response rating, Nightshade",[20]; 62 g ai/ha,0
same,"Plant response rating, Nightshade",[20]; 125 g ai/ha,0
same,"Plant response rating, Nightshade",[20]; 250 g ai/ha,0
same,"Plant response rating, Wheat, Winter",[21]; 31 g ai/ha,0
same,"Plant response rating, Wheat, Winter",[21]; 62 g ai/ha,0
same,"Plant response rating, Wheat, Winter",[21]; 125 g ai/ha,0
same,"Plant response rating, Wheat, Winter",[21]; 250 g ai/ha,0
same,"Plant response rating, Wheat, Spring",[22]; 31 g ai/ha,0
same,"Plant response rating, Wheat, Spring",[22]; 62 g ai/ha,0
same,"Plant response rating, Wheat, Spring",[22]; 125 g ai/ha,0
same,"Plant response rating, Wheat, Spring",[22]; 250 g ai/ha,0
same,"Plant response rating, Sorghum",[23]; 31 g ai/ha,0
same,"Plant response rating, Sorghum",[23]; 62 g ai/ha,0
same,"Plant response rating, Sorghum",[23]; 125 g ai/ha,0
same,"Plant response rating, Sorghum",[23]; 250 g ai/ha,20
same,"Plant response rating, Cotton",[24]; 31 g ai/ha,0
same,"Plant response rating, Cotton",[24]; 62 g ai/ha,0
same,"Plant response rating, Cotton",[24]; 125 g ai/ha,0
same,"Plant response rating, Cotton",[24]; 250 g ai/ha,0
same,"Plant response rating, Itchgrass",[25]; 31 g ai/ha,0
same,"Plant response rating, Itchgrass",[25]; 62 g ai/ha,0
same,"Plant response rating, Itchgrass",[25]; 125 g ai/ha,25
same,"Plant response rating, Itchgrass",[25]; 250 g ai/ha,25
